Data as given in paper PMC6539495, “Anti-Cancer Activity of Novel Dihydrotestosterone-Derived Ring A-Condensed Pyrazoles on Androgen Non-Responsive Prostate Cancer Cell Lines” (International Journal of Molecular Sciences, 2019).

Experiments:
MRC-5 cells = test: MTT cell viability assay on non-cancerous MRC-5 fibroblasts; type: cell-based; conditions: 72 hours, MTT
Method: (§1) HeLa, MCF-7 and MDA-MB-231 cells were obtained from Sigma-Aldrich and maintained as reported previously. MRC-5, PC-3, DU 145 cells were purchased from American Type Culture Collection (ATCC, Manassas, VA, USA). PC-3 and DU 145 were maintained in RPMI medium (Sigma-Aldrich) whereas MRC-5 cells were maintained in DMEM medium (Sigma-Aldrich). All media were complemented with 10% Fetal bovine serum (FBS, Sigma-Aldrich) 2 mM L-glutamine, 0.01% streptomycin and 0.005% ampicillin (Sigma-Aldrich). Cells were cultured under standard conditions in a 37 °C incubator containing 5% CO2 in 95% humidity.
(§2) Each test compound was dissolved in cell culture grade DMSO (Molar Chemicals, Halásztelek, Hungary) in a final concentration of […]. Antiproliferative action of the synthesized steroids was investigated by MTT assay. An amount of 5000 cells/well were seeded into 96 well plates. Twenty-four hours post seeding, all cell lines were treated with each compound in 10 and 30 μM concentrations for 72 hours. […] After 72 hours, cells were washed with PBS and incubated with culture medium containing 0.5 mg/mL MTT (3-(4, 5-dimethylthiazolyl-2)-2,5-diphenyltetrazolium bromide) reagent (SERVA, GmbH, Heidelberg, Germany) for an hour at 37 °C. Formazan crystals were solubilized in DMSO and extinction was measured at 570 nm using a Synergy HTX plate reader (BioTech-Hungary, Budapest, Hungary). MTT assays were performed at least three times using four independent biological replicates. Data were normalized to solvent controls and the graphical representation of the obtained data as well as the calculation of IC50 values were carried out by GraphPad Prism 7 software (GraphPad Software; San Diego, CA, USA).

DU 145 cells = test: MTT cell viability assay on DU 145 prostate cancer cells; type: cell-based, human; conditions: 72 hours
Method: as §1, §2

PC-3 cells = test: MTT cell viability assay on PC-3 prostate cancer cells; type: cell-based, human; conditions: for antiproliferative potency against PC-3 prostate cancer cells compared to MRC-5 non-cancerous fibroblasts: primary screen
Method: as §1, §2

HeLa cells = test: MTT cell viability assay on HeLa cervical cancer cells; type: cell-based, human; conditions: 72 hours
Method: as §1, §2

MCF-7 cells = test: MTT cell viability assay on MCF-7 breast cancer cells; type: cell-based, human; conditions: 72 hours
Method: as §1, §2

MDA-MB-231 cells = test: MTT cell viability assay on MDA-MB-231 breast cancer cells; type: cell-based, human; conditions: 72 hours
Method: as §1, §2

| SMILES | Mean values (%) of primary growth inhibitory screen (viability in %), MRC-5 (MRC-5 cells; 10 µM) | Mean values (%) of primary growth inhibitory screen (viability in %), MRC-5 (MRC-5 cells; 30 µM) | Mean values (%) of primary growth inhibitory screen (viability in %), DU 145 (DU 145 cells; 10 µM) | Mean values (%) of primary growth inhibitory screen (viability in %), DU 145 (DU 145 cells; 30 µM) | Mean values (%) of primary growth inhibitory screen (viability in %), PC-3 (PC-3 cells; 10 µM, 72 hours, MTT) | antiproliferative potency against PC-3 prostate cancer cells compared to MRC-5 non-cancerous fibroblasts (PC-3 cells; 10 µM) | Mean values (%) of primary growth inhibitory screen (viability in %), PC-3 (PC-3 cells; 30 µM, 72 hours, MTT) | antiproliferative potency against PC-3 prostate cancer cells compared to MRC-5 non-cancerous fibroblasts (PC-3 cells; 30 µM) | Mean values (%) of primary growth inhibitory screen (viability in %), HeLa (HeLa cells; 10 µM) | Mean values (%) of primary growth inhibitory screen (viability in %), HeLa (HeLa cells; 30 µM) | Mean values (%) of primary growth inhibitory screen (viability in %), MCF-7 (MCF-7 cells; 10 µM) | Mean values (%) of primary growth inhibitory screen (viability in %), MCF-7 (MCF-7 cells; 30 µM) | Mean values (%) of primary growth inhibitory screen (viability in %), MDA-MB-231 (MDA-MB-231 cells; 10 µM) | Mean values (%) of primary growth inhibitory screen (viability in %), MDA-MB-231 (MDA-MB-231 cells; 30 µM) | IC50 (MRC-5 cells; ± SD) | IC50 (DU 145 cells; ± SD) | IC50 (PC-3 cells; MTT, 72 hours, ± SD) | IC50 (HeLa cells; ± SD) | IC50 (MCF-7 cells; ± SD) | IC50 (MDA-MB-231 cells; ± SD) |
| --- | --- | --- | --- | --- | --- | --- | --- | --- | --- | --- | --- | --- | --- | --- | --- | --- | --- | --- | --- | --- |
| Cc1c2c(nn1-c1ccc(F)cc1)C[C@@H]1CC[C@@H]3[C@H](CC[C@]4(C)C(=O)CC[C@@H]34)[C@@]1(C)C2 [5f, 1′-(4″-Fluorophenyl)-5′-methylpyrazolo[3′,4′:3,2]-5α-androst-17-one] | 83.9% | 66.1% | 74.9% | 50.7% | 54.3% | significantly higher | 17.6% | significantly higher | 40.5% | 50.5% | 72.6% | 30.6% | 82.3% | 66.0% |  |  |  |  |  |  |
| COc1ccc(-n2nc3c(c2C)C[C@@]2(C)[C@@H](CC[C@@H]4[C@@H]2CC[C@]2(C)C(=O)CC[C@@H]42)C3)cc1 [5e, 1′-(4″-Methoxyphenyl)-5′-methylpyrazolo[3′,4′:3,2]-5α-androst-17-one] | 79.3% | 79.3% | 62.1% | 48.1% | 45.5% |  | 29.7% | significantly higher | 38.4% | 41.8% | 53.5% | 36.3% | 72.0% | 61.5% |  |  |  |  |  |  |
| Cc1c2c(nn1-c1ccc(Cl)cc1)C[C@@H]1CC[C@@H]3[C@H](CC[C@]4(C)[C@@H](O)CC[C@@H]34)[C@@]1(C)C2 [4g, 17β-Hydroxy-1′-(4″-chlorophenyl)-5′-methylpyrazolo[3′,4′:3,2]-5α-androstane] | 80.1% | 1.1% | 74.8% | 1.4% | 44.6% | significantly higher | 3.0% |  | 40.1% | 4.7% | 48.5% | 5.3% | 78.4% | 5.3% | 15.6 ± 1.4 µM | 14.2 ± 1.3 µM | 7.7 ± 1.2 µM | 7.2 ± 0.4 µM | 4.4 ± 0.3 µM | 12.6 ± 1.5 µM |
| Cc1c2c(nn1-c1ccc(C#N)cc1)C[C@@H]1CC[C@@H]3[C@H](CC[C@]4(C)C(=O)CC[C@@H]34)[C@@]1(C)C2 [5i, 1′-(4″-Cyanophenyl)-5′-methylpyrazolo[3′,4′:3,2]-5α-androst-17-one] | 90.4% | 87.9% | 83.3% | 79.9% | 56.2% |  | 70.0% |  | 42.2% | 36.4% | 53.2% | 39.4% | 70.6% | 59.7% |  |  |  |  |  |  |
